Patent US20230130621A1, “APPLICATION OF AGENT IN PREPARATION OF MEDICINE FOR TREATING/INHIBITING PSORIASIS” (priority 2021, published 2023)

Columns and labels:
endothelial cells = assay: dsDNA in exosomes released by endothelial cells stimulated by cytokines; type: cell-based; settings: cytokine stimulation; FIG. 17, 18
From the text: The dsDNA in exosomes released by endothelial cells stimulated by cytokines TNFα and IL17 was detected.

mouse = assay: IL-1b injection into ears of the mouse; type: in vivo; settings: injected into ears of the mouse; FIG. 26, 27
From the text: dsDNA-AIM2 finally released the cytokine IL-1b to act on the body.

| Substance | dsDNA content in exosomes released by endothelial cells (endothelial cells) | psoriasis-like response in a mouse (skin phenotype, spleen, pathology) (mouse) |
| --- | --- | --- |
| TNFα | significantly stimulated the dsDNA content in exosomes released by endothelial cells | – |
| IL17: cytokine IL17, clinically relevant cytokine for psoriasis | significantly stimulated the dsDNA content in exosomes released by endothelial cells | – |
| IL-1b: cytokine interleukin 1b | – | cause psoriasis-like skin phenotype, spleen enlargement and pathological changes |
